Positions of bridges follow the written chain, without caps; N, C: chain ends. Residues, ends and D or L forms follow the SMILES beside them. No end group written: not given here.

Data on 17 compounds can be found in patent publication US6555650B1, “Cyclic analogs of histatins” (priority 1999, dated 2003).

For one assay, the system named is S. cerevisiae. In words: fungistatic MIC assay in antifungal agar. The following applies: S. cerevisiae, minimum concentration for 100% inhibition after 24 hours at 37° C. Type of assay: cell-based. The procedure:
The compounds of Table 1 were tested for fungistatic activity with an assay based on the work of Gordon, Lapa et.al. (18) with the nonpathogenic yeast S. cerevisiae in which ketoconazole is used as control. A semisolid is prepared to which is added serial dilutions of peptide. This antifungal agar is distributed in a well plate, and the S. Cerevisiae inoculum is then added to each well. Both ketokonoazole and H-5 are used as positive controls and buffer is used as a control blank. Minimum inhibitory concentration MIC, i.e. the concentration of the peptide under test which prevents growth, as observed visually, is recorded for each sample so that low values of MIC indicate potent antifungal compounds.
More specifically, stock peptide solutions (600 microliters or 1 ml) were prepared to 10 times the final concentration of the most concentrated test sample in a sodium phosphate buffer (0.01 M0, pH 7.4). Peptide concentrations were determined by UV absorbance at λ=275. Control blanks were also prepared using 1 ml buffer Five serial dilutions were made in sterile culture tubes with buffer to create a range of peptide concentrations. The final volume in each tube was either 300 microliter or 1 ml. Agar medium (2.7 or 4.5 ml) was added to each tube and mixed. Aliquots (1 ml) of each were added to a 24 well plate to give 6 different concentrations of each peptide per plate. […] A stock solution (10 mg/mL DMSO) was diluted 1:49 with buffer. A range of final concentrations of 20 to 0.16 micrograms/ml was tested. In addition, in later analog assays, H-5 was included as a positive peptide control. Histatin 5 was tested in a range from 200 micromolar to 6.3 micromolar. Other analogs were tested at concentrations anywhere from 200 μM down to 0.14 μM ubtil the analog with lowest MIC concentration was identified.
S. cerevisiae cells grown overnight were centrifuged and washed with a 0.85% saline solution, three times. Cell concentration was adjusted to 85% transmission at λ=530 with saline solution. Cells were further diluted 1:19. Inoculant (10 microL) was added to the peptide-containing medium. The cells were incubated on this medium for 24 hours at 37° C. The fungistatic MIC for these compounds was defined as the minimum concentration required to achieve 100% inhibition after 24 hours.
Consider `CC(=O)N1CCN(c2ccc(OCC3COC(Cn4ccnc4)(c4ccc(Cl)cc4Cl)O3)cc2)CC1` (centres unmarked) [Ketoconazole, reference compound], for which the MIC range was determined as 4.7.

Regarding “Arg His His Cys Trp Lys Arg Lys Phe His Glu Lys His His Cys His Arg Gly Tyr (RHHCWKRKFHEKHHCHRGY; disulfide 4-15 (inferred)) [Db3-67]”, the MIC range was 0.67-1.34.

For “Arg His His Cys Tyr Lys Arg Lys Cys His Glu Lys His His Cys His Arg Cys Tyr (RHHCYKRKCHEKHHCHRCY; also: cyclic analogue, ring not given here) [Db2-100]”, the MIC range is given as 0.63-1.25.

On to “Arg His His Cys Tyr Lys Arg Lys His His Glu Lys His His Cys His Arg Gly Tyr (RHHCYKRKHHEKHHCHRGY; disulfide 4-15 (inferred)) [Db3-13]”, for which the MIC range is recorded as 2.6-5.1.

Regarding “Arg His His Cys Tyr Lys Arg Lys Phe His Glu Lys His His Cys His (RHHCYKRKFHEKHHCH; disulfide 4-15 (inferred)) [Db3-25]”, the MIC range is listed as greater than 5.2.

For “Arg His His Cys Tyr Lys Arg Lys Phe His Glu Lys His His Cys His Arg (RHHCYKRKFHEKHHCHR; also: cyclic analogue, ring not given here) [Db3-15]”, the MIC range is given as 2.6-5.2.

As to “Arg His His Cys Tyr Lys Arg Lys Phe His Glu Lys His His Cys His Arg Gly (RHHCYKRKFHEKHHCHRG; also: cyclic analogue, ring not given here) [Db3-19]”, the MIC range is 1.3-2.6.

Regarding “Arg His His Cys Tyr Lys Arg Lys Phe His Glu Lys His His Cys His Arg Gly Tyr [Db3-35] (RHHCYKRKFHEKHHCHRGY; also: cyclic analogue, ring not given here)”, the MIC range is listed as 1.3-2.5.

“Arg His His Cys Tyr Lys Arg Lys Phe His Glu Lys His His Cys His Arg Gly Tyr [Db3-53] (RHHCYKRKFHEKHHCHRGY; also: cyclic analogue, ring not given here)”: the MIC range is recorded as greater than 5.

For “Arg His His Gly Cys Lys Arg Lys Phe His Glu Lys His His Cys His Arg Gly Tyr (RHHGCKRKFHEKHHCHRGY; disulfide 5-15 (inferred)) [Db2-178]”, the MIC range was 2.5-5.

Consider “Arg His His Gly Cys Lys Arg Lys Phe His Glu Lys His His Ser Cys Arg Gly Tyr (RHHGCKRKFHEKHHSCRGY; disulfide 5-16 (inferred)) [Db3-11]”, for which the MIC range is 2.5-5.

As to “Arg His His Gly Tyr Cys Arg Lys Phe His Glu Lys His His Cys His Arg Gly Tyr (RHHGYCRKFHEKHHCHRGY; disulfide 6-15 (inferred)) [Db2-179]”, the MIC range was 2.5-5.

As to “Arg His His Gly Tyr Lys Cys Lys Phe His Glu Lys His His Cys His Arg Gly Tyr (RHHGYKCKFHEKHHCHRGY; disulfide 7-15 (inferred)) [Db2-180]”, the MIC range was 1.25-2.5.

As to “RHHCYRKFHEKHHC (cysteine pairing not given here) [Db3-30]”, the MIC range was greater than 5.2.

The assay is the same for the next values; noted with them: against S. cerevisiae.
On to `N=C(N)NCCC[C@H](NC(=O)[C@H](Cc1c[nH]cn1)NC(=O)[C@@H]1CSSC[C@H](NC(=O)[C@H](Cc2c[nH]cn2)NC(=O)[C@H](Cc2c[nH]cn2)NC(=O)[C@@H](N)CCCNC(=N)N)C(=O)N[C@@H](Cc2ccc(O)cc2)C(=O)N[C@@H](CCCCN)C(=O)N[C@@H](CCCNC(=N)N)C(=O)N[C@@H](CCCCN)C(=O)N[C@@H](Cc2ccccc2)C(=O)N[C@@H](Cc2c[nH]cn2)C(=O)N[C@@H](CCC(=O)O)C(=O)N[C@@H](CCCCN)C(=O)N[C@@H](Cc2c[nH]cn2)C(=O)N[C@@H](Cc2c[nH]cn2)C(=O)N1)C(=O)NCC(=O)N[C@@H](Cc1ccc(O)cc1)C(=O)O` [Db2-121] (H-RHHCYKRKFHEKHHCHRGY-OH; disulfide 4-15; N-terminus assumed), for which the “times more potent than H-5” value is “approximately 100 times” and the “times more potent than ketoconazole” value was roughly 10 times.

Still in this assay, the particulars now being: fungistatic activity.
RHHKYRKFHEKHHEHRGY [Db3-41] showed an MIC range of 0.55 to 1.1 µM.

Staying with this assay, now noted: relative to Db2-121.
For “Arg His His Cys Tyr Lys Arg Lys Phe His Glu Lys His His Cys His Arg (RHHCYKRKFHEKHHCHR; also: cyclic analogue, ring not given here) [Db3-15]”, the “activity after additional deletions at the C-terminal” value was “small loss of activity”.

“Arg His His Cys Tyr Lys Arg Lys Phe His Glu Lys His His Cys His Arg Gly (RHHCYKRKFHEKHHCHRG; also: cyclic analogue, ring not given here) [Db3-19]”: the “activity after additional deletions at the C-terminal” value is recorded as “small loss of activity”.

A further assay concerns C. albicans.
Assay: not given
Particulars: against C. albicans; cited from earlier work.
Turning to histatin-5 [Peptide H-5], the “minimum inhibitory concentration (MIC)” value was 10 µg/mL.
